Among the targets are CAMK2A (Homo sapiens, UniProt Q9UQM7); CSNK1E (Homo sapiens, UniProt P49674); ACVRL1 (Homo sapiens, UniProt P37023); BUB1 (Homo sapiens, UniProt O43683); PIK4CB (Homo sapiens, UniProt Q9UBF8); ULK1 (Homo sapiens, UniProt O75385); KIT(V559D) (Homo sapiens, UniProt P10721, V559D); CSNK1A1L (Homo sapiens, UniProt Q8N752); MARK3 (Homo sapiens, UniProt P27448); KIT(V559D, T670I) (Homo sapiens, UniProt P10721, T670I/V559D); RIPK4 (Homo sapiens, UniProt P57078); NEK10 (Homo sapiens, UniProt Q6ZWH5); CDK7 (Homo sapiens, UniProt P50613); CLK4 (Homo sapiens, UniProt Q9HAZ1); FLT3(N841I) (Homo sapiens, UniProt P36888, N841I); MINK (Homo sapiens, UniProt Q8N4C8); PIK3CA(E545A) (Homo sapiens, UniProt P42336, E545A); TBK1 (Homo sapiens, UniProt Q9UHD2).

Holding throughout (assay): KINOMEscan
Conditions in all cases: read-out: Percent Control

Chain of CDK7 (P50613 whole entry): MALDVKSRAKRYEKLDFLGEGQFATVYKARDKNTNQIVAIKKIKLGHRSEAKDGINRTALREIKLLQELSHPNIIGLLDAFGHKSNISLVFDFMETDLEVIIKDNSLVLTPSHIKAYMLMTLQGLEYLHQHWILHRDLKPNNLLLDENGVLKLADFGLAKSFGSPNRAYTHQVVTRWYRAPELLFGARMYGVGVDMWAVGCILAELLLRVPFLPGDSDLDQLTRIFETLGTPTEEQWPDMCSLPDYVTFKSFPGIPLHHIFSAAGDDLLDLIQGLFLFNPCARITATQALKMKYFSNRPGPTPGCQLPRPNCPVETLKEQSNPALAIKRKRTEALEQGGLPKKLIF
Chain of KIT(V559D, T670I) (P10721 26-976 V559D/T670I): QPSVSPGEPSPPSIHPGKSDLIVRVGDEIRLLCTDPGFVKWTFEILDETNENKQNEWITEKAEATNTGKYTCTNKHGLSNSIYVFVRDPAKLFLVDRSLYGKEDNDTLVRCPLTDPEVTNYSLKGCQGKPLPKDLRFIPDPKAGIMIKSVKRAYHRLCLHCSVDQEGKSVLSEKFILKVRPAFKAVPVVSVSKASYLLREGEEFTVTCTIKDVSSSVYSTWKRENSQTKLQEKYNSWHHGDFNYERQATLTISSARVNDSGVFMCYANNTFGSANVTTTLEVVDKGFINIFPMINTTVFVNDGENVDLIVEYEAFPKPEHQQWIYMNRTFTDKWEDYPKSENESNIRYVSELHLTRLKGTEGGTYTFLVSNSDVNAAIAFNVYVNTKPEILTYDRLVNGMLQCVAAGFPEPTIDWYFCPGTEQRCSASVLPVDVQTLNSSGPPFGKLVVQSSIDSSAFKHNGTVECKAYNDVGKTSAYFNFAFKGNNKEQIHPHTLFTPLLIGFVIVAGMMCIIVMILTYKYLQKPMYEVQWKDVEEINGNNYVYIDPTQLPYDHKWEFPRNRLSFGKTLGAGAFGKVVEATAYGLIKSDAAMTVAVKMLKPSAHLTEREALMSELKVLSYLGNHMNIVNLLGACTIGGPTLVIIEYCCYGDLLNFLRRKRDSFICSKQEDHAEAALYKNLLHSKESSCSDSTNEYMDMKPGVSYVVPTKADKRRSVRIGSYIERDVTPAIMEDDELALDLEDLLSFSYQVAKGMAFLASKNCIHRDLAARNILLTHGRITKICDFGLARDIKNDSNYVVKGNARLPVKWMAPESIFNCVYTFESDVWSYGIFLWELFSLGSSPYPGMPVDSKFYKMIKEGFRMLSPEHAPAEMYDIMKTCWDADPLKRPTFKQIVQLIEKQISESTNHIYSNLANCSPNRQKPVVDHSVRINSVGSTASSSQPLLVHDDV
Chain of RIPK4 (P57078 whole entry): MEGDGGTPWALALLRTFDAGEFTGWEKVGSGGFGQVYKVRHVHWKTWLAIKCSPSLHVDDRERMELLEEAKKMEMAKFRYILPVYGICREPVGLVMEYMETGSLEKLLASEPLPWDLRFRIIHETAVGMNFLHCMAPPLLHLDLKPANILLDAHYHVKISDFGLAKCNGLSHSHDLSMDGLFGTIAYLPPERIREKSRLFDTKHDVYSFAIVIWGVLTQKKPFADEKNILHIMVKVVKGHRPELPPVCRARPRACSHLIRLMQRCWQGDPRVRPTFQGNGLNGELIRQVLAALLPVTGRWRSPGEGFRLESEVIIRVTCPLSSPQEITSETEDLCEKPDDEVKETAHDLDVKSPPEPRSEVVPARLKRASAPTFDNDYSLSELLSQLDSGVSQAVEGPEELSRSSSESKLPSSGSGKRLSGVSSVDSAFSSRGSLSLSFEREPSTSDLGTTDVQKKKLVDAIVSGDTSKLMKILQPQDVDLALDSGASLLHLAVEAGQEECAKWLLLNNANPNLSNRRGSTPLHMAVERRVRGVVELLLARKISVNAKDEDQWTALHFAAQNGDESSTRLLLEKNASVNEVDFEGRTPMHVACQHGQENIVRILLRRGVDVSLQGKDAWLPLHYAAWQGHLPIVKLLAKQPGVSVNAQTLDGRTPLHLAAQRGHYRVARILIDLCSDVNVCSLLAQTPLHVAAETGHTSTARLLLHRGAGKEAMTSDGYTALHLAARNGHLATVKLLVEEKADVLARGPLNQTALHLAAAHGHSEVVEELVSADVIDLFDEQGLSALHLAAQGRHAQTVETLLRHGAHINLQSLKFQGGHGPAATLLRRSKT
Chain of PIK4CB (Q9UBF8 whole entry): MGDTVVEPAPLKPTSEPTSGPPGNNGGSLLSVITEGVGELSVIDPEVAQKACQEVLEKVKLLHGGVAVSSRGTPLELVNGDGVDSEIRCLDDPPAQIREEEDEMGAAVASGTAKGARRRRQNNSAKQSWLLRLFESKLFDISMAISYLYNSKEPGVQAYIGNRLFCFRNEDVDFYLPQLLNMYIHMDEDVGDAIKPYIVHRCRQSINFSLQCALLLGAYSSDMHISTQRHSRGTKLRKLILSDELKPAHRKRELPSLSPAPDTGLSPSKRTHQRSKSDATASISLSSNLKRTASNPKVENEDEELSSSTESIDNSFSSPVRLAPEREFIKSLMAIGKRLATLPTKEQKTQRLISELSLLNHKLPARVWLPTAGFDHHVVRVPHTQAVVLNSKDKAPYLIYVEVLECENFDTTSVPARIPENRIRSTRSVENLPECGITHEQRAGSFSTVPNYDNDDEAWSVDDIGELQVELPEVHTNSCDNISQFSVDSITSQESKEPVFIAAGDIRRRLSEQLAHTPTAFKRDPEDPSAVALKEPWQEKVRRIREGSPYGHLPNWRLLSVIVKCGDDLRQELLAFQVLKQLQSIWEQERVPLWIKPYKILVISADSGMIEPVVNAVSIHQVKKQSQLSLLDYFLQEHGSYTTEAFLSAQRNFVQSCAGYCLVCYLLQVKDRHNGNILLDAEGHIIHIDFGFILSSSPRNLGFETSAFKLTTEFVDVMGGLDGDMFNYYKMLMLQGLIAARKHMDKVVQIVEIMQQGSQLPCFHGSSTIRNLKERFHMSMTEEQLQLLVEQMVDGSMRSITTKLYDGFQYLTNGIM
Chain of NEK10 (Q6ZWH5 whole entry): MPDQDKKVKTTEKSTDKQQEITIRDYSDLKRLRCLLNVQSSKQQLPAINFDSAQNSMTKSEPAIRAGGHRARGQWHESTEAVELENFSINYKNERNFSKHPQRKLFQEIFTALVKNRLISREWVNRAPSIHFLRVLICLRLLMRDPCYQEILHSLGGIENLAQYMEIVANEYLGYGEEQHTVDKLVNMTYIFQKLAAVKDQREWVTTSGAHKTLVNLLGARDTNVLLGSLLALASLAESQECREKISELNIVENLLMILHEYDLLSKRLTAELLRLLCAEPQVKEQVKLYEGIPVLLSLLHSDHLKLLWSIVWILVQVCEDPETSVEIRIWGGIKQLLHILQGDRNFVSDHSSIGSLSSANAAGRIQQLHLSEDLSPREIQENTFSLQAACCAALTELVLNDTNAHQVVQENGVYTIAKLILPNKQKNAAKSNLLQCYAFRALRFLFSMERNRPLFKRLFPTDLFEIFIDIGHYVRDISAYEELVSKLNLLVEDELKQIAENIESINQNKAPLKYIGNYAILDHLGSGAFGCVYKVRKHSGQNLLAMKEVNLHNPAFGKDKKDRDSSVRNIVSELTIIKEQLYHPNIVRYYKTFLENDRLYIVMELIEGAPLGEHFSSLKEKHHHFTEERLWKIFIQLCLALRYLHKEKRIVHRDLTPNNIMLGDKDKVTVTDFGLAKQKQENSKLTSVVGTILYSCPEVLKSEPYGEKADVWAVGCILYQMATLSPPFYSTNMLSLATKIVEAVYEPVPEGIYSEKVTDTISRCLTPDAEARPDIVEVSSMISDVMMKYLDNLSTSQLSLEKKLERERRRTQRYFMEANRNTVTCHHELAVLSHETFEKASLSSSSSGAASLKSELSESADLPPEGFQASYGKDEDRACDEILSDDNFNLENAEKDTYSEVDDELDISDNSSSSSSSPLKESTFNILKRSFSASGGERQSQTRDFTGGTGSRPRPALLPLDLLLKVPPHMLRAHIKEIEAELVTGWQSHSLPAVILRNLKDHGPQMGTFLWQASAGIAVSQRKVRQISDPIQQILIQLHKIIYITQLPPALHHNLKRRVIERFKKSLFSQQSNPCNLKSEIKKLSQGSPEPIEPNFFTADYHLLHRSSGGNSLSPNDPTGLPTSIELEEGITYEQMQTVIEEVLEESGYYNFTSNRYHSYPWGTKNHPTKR
Chain of CAMK2A (Q9UQM7 whole entry): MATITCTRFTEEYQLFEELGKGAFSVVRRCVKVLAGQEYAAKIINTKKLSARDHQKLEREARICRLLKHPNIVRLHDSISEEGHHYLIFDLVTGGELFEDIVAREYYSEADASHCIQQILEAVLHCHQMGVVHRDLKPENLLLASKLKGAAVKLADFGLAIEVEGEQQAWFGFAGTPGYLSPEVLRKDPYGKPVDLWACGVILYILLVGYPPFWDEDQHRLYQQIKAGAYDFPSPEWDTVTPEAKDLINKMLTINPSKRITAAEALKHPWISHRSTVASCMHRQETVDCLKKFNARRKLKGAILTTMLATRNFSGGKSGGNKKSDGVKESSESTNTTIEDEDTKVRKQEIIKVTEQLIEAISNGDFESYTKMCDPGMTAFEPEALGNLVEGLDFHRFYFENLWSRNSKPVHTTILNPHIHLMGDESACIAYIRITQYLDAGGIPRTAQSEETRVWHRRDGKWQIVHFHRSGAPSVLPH
Chain of CLK4 (Q9HAZ1 whole entry): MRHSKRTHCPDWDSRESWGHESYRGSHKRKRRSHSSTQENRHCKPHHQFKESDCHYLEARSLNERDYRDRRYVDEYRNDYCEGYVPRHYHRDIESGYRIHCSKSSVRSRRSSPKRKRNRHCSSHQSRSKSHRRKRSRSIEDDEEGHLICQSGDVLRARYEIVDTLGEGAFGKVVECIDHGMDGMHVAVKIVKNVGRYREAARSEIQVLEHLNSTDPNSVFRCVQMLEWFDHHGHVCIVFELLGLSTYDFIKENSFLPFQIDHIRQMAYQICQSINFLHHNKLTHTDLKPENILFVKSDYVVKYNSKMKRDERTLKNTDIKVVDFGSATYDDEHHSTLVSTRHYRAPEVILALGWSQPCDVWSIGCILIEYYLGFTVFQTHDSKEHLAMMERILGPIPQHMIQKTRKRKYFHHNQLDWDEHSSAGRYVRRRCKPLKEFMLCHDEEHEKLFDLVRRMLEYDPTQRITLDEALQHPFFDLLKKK
Description for ACVRL1: (§1) The kinase engagement assay (KINOMEscan®) was performed by DiscoverX assessing binding abilities toward a set of kinases.
Description for BUB1: as §1
Description for CAMK2A: as §1
Description for CDK7: as §1
Description for CLK4: as §1
Description for CSNK1A1L: as §1
Description for CSNK1E: as §1
Description for FLT3(N841I): as §1
Description for KIT(V559D): as §1
Description for KIT(V559D, T670I): as §1
Description for MARK3: as §1
Description for MINK: as §1
Description for NEK10: as §1
Description for PIK3CA(E545A): as §1
Description for PIK4CB: as §1
Description for RIPK4: as §1
Description for TBK1: as §1
Description for ULK1: as §1

Regarding `O=C1CCC(N2C(=O)c3cccc(NCCCCCCCCNC(=O)N4CC[C@H](NC5=Nc6cc(F)ccc6N(CC(F)F)c6ccc(Cl)cc65)C4)c3C2=O)C(=O)N1` (stereo partly drawn) [BJG-05-039, (3S)-3-((2-Chloro-5-(2,2-difluoroethyl)-8-fluoro-5H-dibenzo[b,e][1,4]diazepin-11-yl)amino)-N-(8-((2-(2,6-dioxopiperidin-3-yl)-1,3-dioxoisoindolin-4-yl)amino)octyl)pyrrolidine-1-carboxamide], the remaining binding at 10 µM was found to be 39% at CAMK2A; 61% at CSNK1E; 71% on ACVRL1; 73% on BUB1; 78% at PIK4CB; 78% on ULK1. The remaining binding at 10 µM on KIT(V559D) is 81%; at CSNK1A1L, 83%; at MARK3, 83%; at KIT(V559D, T670I) it was 85%; on RIPK4, 98%; at NEK10 it was 99%. Also, the remaining binding at 10 µM on CDK7, on CLK4, on FLT3(N841I), at MINK, at PIK3CA(E545A) and on TBK1 was 100% each time.

Source of the values: patent US20250312462A1, “PAK1 DEGRADERS AND METHODS OF USE THEREOF” (INSTITUTE FOR CANCER RESEARCH D/B/A THE RESEARCH INSTITUTE …, priority 2022, published 2025).
